For 12 compounds, inhibition, IC50 and Activity results are on record in ChEMBL document CHEMBL5576074, “[1,2,4]Triazolo[1,5-a]pyrimidine derivatives: Structure-activity relationship study leading to highly selective ENPP1 inhibitors” (Bioorg Med Chem Lett, 2024).

For data set [1], the target named is T1, Ectonucleotide pyrophosphatase/phosphodiesterase family member 3 (Homo sapiens) (UniProt O14638).
T1 sequence (whole entry): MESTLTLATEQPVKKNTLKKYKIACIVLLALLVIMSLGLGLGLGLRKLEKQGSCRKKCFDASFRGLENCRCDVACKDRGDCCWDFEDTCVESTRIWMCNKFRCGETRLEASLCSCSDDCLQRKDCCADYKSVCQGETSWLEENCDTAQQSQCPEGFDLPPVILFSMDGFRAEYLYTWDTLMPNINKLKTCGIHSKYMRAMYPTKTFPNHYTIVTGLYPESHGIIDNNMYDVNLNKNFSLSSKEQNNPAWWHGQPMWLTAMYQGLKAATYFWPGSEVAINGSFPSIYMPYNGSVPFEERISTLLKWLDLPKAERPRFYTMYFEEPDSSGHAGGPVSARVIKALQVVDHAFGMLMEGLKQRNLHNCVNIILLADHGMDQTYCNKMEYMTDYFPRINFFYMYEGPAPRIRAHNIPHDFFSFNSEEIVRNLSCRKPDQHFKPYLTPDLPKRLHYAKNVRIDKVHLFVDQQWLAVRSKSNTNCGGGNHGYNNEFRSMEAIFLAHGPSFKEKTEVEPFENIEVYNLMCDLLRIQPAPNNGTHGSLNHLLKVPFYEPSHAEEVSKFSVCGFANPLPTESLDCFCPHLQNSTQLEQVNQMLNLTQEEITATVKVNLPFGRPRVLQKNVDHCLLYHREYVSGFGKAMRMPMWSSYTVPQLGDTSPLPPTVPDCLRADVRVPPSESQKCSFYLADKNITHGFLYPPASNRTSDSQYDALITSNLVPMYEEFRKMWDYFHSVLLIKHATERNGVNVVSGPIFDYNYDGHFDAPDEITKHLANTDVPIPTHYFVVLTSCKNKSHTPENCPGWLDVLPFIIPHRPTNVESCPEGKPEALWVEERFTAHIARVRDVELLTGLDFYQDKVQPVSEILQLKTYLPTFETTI
The data set is described as follows: Inhibition of ENPP3 (unknown origin) at 10 uM relative to control.

Data set [2] concerns the target T2, Ectonucleotide pyrophosphatase/phosphodiesterase family member 1 (Homo sapiens, UniProt P22413).
T2 sequence (P22413 whole entry): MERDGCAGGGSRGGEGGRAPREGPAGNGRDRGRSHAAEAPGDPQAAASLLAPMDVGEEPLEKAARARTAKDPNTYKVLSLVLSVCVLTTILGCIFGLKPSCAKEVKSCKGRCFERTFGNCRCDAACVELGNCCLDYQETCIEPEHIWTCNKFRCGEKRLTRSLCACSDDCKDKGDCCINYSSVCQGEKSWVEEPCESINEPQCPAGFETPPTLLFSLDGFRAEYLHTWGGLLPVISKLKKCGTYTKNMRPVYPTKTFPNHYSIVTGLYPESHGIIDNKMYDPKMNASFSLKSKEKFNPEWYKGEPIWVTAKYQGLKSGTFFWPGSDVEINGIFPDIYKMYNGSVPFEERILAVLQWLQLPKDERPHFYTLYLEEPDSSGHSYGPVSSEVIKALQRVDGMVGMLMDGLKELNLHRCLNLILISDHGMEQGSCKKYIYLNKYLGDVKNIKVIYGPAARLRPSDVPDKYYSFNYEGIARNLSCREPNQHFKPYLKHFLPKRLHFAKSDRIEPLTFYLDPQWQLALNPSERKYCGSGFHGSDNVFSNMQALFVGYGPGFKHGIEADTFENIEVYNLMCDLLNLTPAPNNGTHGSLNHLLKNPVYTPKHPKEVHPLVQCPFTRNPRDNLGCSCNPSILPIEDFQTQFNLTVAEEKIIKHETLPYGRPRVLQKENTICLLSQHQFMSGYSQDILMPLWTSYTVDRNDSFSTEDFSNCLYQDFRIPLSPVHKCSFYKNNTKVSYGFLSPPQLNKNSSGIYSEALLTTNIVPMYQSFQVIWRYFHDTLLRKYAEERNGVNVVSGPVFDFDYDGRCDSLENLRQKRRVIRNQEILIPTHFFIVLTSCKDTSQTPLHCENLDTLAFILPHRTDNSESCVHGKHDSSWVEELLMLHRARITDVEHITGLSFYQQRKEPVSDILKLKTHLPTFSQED
The data set is described as follows: Inhibition of ENPP1 (unknown origin).

The target of data set [3] is T3, Ectonucleotide pyrophosphatase/phosphodiesterase family member 3 (Homo sapiens, UniProt O14638).
T3 sequence (O14638 whole entry): T1 sequence (whole entry)
The data set is described as follows: Inhibition of ENPP3 (unknown origin).

In data set [4] the target is T4, Autotaxin (Homo sapiens, UniProt Q13822). The data set is described as follows: Inhibition of ENPP2 (unknown origin).
Data set [5] deals with T5, Glycerophosphocholine cholinephosphodiesterase ENPP6 (Homo sapiens, UniProt Q6UWR7).
T5 sequence (Q6UWR7 whole entry): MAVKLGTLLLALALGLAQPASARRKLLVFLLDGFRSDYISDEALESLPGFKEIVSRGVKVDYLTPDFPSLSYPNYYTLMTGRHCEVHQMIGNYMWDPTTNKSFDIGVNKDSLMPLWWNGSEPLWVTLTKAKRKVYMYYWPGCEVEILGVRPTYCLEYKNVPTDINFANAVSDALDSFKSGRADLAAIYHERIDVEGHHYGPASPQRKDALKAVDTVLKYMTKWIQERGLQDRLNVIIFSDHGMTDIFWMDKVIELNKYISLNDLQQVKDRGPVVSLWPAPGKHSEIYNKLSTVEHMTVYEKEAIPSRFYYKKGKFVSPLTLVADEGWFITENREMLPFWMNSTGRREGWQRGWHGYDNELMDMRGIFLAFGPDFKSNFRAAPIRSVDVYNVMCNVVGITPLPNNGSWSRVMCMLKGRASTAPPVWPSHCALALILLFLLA
The data set is described as follows: Inhibition of ENPP6 (unknown origin).

For data set [6], the target named is T1, Ectonucleotide pyrophosphatase/phosphodiesterase family member 3 (Homo sapiens). The data set is described as follows: Inhibition of ENPP3 (unknown origin) at 50 uM relative to control.
Data set [7] has as its target T4, Autotaxin. The data set is described as follows: Inhibition of ENPP2 (unknown origin) at 50 uM relative to control.
The target of data set [8] is T6, Glycerophosphocholine cholinephosphodiesterase ENPP6 (Homo sapiens) (UniProt Q6UWR7).
T6 sequence (whole entry): T5 sequence (Q6UWR7 whole entry)
The data set is described as follows: Inhibition of ENPP6 (unknown origin) at 50 uM relative to control.

Data set [9] addresses T2, Ectonucleotide pyrophosphatase/phosphodiesterase family member 1. The data set is described as follows: Inhibition of ENPP1 (unknown origin) assessed as reduction in ATP hydrolysis by AMP-Glo assay.
Data set [10] has the same target. The data set is described as follows: Inhibition of ENPP1 (unknown origin) assessed as reduction in 2'3'-cGAMP hydrolysis by AMP-Glo assay.
Data set [11] has as its target T3, Ectonucleotide pyrophosphatase/phosphodiesterase family member 3. The data set is described as follows: Inhibition of ENPP3 (unknown origin) assessed as reduction in ATP hydrolysis by AMP-Glo assay.
Data set [12] shares this target. The data set is described as follows: Inhibition of ENPP3 (unknown origin) assessed as reduction in 2'3'-cGAMP hydrolysis by AMP-Glo assay.
The target of data set [13] is T1, Ectonucleotide pyrophosphatase/phosphodiesterase family member 3 (Homo sapiens). The data set is described as follows: Inhibition of ENPP3 (unknown origin) assessed as reduction in ATP hydrolysis at 50 uM by AMP-Glo assay relative to control.
The target is the same in data set [14]. The data set is described as follows: Inhibition of ENPP3 (unknown origin) assessed as reduction in 2'3'-cGAMP hydrolysis at 50 uM by AMP-Glo assay relative to control.
The subject of the next data set is THP1-Dual. The data set is described as follows: Cytotoxicity against human THP1-Dual cells upto 50 uM. In kind it is toxicity, cell-based.
The nature of data set [15]: Cytotoxicity against human HepG2-Dual cells upto 50 uM. In kind it is toxicity, cell-based. Conditions: hepg2, 50 µM.

Turning to `Cc1nc2ncnn2c(N2CCCCCC2)c1Cc1ccccc1`, the inhibition in data set [1] stood at 5%.
`CCc1nc2ncnn2c(N(CC)Cc2ccccc2)c1Cc1ccccc1` yielded an inhibition in [1] of 2%.
On the same count and under the same terms, the value for `Cc1nc2ncnn2c(N2CCC(C)CC2)c1Cc1ccccc1` was 2%.
Consider `Cc1nc2ncnn2c(N2CCCC2)c1Cc1ccccc1`, for which, in [1], the inhibition stood at 16%.
As for `Cc1nc2ncnn2c(N(C)C)c1Cc1cccc(O)c1`, the IC50 is 0.42 µM in [2]; above 50 µM in [3]; above 50 µM at Autotaxin [4]; above 50 µM in [5]; 1.8 µM in data set [9]; 1.4 µM in data set [10]. For the same compound, the IC50 in data set [11] and in [12] was above 50 µM throughout. Moreover, the inhibition in data set [6] is 24%; against Autotaxin [7], 31%; in data set [8] it was below 1%; in data set [13], below 1%; in [14], below 1%. Moreover, the Activity result (in the data set with THP1-Dual; in data set [15]) was “Non-Toxic” each time.
Regarding `Cc1nc2ncnn2c(N(C)C)c1Cc1cccc(N)c1`, the IC50 in data set [2] was 0.26 µM; in data set [3], above 50 µM; against Autotaxin [4], above 50 µM; in data set [5], above 50 µM; in data set [9], 0.85 µM; in data set [10] it was 0.82 µM. In addition, the IC50 in [11] and in [12] was above 50 µM throughout. Also, the inhibition was 24% in [6]; 11% against Autotaxin [7]; below 1% in [8]; 4.2% in [13]; 2.2% in [14]. The Activity entry (with THP1-Dual; in data set [15]) was “Non-Toxic” each time.
Take `Cc1nc2ncnn2c(N2CCCCC2)c1Cc1ccccc1`: the inhibition in data set [1] turned out to be 1%.
For `Cc1nc2ncnn2c(N(C)C)c1Cc1ccccc1`, the half-inhibitory concentration (IC50) in [2] is 0.74 µM; in data set [3] it was above 50 µM; on Autotaxin [4], above 50 µM; in data set [5], above 50 µM; in [11] it was above 50 µM; in [12], above 50 µM. Further, the inhibition is 6.3% in [6]; 31% against Autotaxin [7]; below 1% in data set [8]; 7.5% in data set [13]; below 1% in [14]; 19% in [1].
As for `CCCNc1c(Cc2ccccc2)c(C)nc2ncnn12`, the IC50 in data set [2] was 32 µM; in data set [3], above 50 µM; at Autotaxin [4], above 50 µM; in data set [5], above 50 µM. Also, the figures for the inhibition (in data set [6]; on Autotaxin [7]; in data set [8]) were 5.2%, 12% and 3.8%, respectively.
As to `Cc1nc2ncnn2c2c1Cc1ccccc1N2`, the IC50 is above 30 µM in [2], above 50 µM in data set [3], above 50 µM on Autotaxin [4] and above 50 µM in data set [5]. Moreover, the inhibition in data set [6] was 21%; against Autotaxin [7] it was below 1%; in [8], below 1%.
As to `Cc1nc2ncnn2c(NCCCC(=O)O)c1Cc1cccc(N)c1`, the IC50 in data set [2] was 11 µM; in [3], above 50 µM; against Autotaxin [4], above 50 µM; in data set [5], above 50 µM. For the same compound, the figures for the inhibition (in data set [6]; against Autotaxin [7]; in data set [8]) were 11%, 22% and 3.7%, respectively.
In the case of `Cc1nc2ncnn2c(NCc2ccc(C(=O)O)cc2)c1Cc1cccc(N)c1`, the half-inhibitory concentration (IC50) is 1.1 µM in data set [2]; above 50 µM in data set [3]; above 50 µM against Autotaxin [4]; above 50 µM in data set [5]; 8.6 µM in data set [9]; 9 µM in [10]. Also, the IC50 in data set [11] and in data set [12] was above 50 µM throughout. In addition, the inhibition in data set [6] was 33%; against Autotaxin [7], 8.9%; in data set [8], below 1%; in [13], 1.6%; in data set [14], below 1%. In addition, the Activity entry (in the data set on THP1-Dual; in [15]) was “Non-Toxic” in each case.
